ChEMBL document CHEMBL1201862, “PubChem BioAssay data set” (2004)
Active and inactive are the calls of the source.

How the values were obtained:
[1] = target: DNA damage-inducible transcript 3 protein (Mus musculus, UniProt P35639); type: functional, Cricetulus griseus
[2] = target: DNA (cytosine-5)-methyltransferase 1 (Homo sapiens, UniProt P26358); assay: inhibition of DNA methylation by DNMT1 – biochemical, fluorescent molecular beacon, confirmation (AID 602386); type: functional
[3] = test system: BJ; assay: cells; type: functional, cell-based; conditions: Homo sapiens
[4] = DRD fibroblast viability loss – cell-based, non-viral oncogenic, luminescence, dose response (AID 1934); type: functional; conditions: Homo sapiens
[5] = target: T1, Hexokinase-1 (Homo sapiens, UniProt P19367); assay: SAR analysis of small molecule inhibitors of hexokinase domain containing I (HKDC1) in the hexokinase 1 selectivity assay. [Related pubchem assays (depositor defined):AID493160, AID493190]; type: functional
T1 sequence (P19367 whole entry): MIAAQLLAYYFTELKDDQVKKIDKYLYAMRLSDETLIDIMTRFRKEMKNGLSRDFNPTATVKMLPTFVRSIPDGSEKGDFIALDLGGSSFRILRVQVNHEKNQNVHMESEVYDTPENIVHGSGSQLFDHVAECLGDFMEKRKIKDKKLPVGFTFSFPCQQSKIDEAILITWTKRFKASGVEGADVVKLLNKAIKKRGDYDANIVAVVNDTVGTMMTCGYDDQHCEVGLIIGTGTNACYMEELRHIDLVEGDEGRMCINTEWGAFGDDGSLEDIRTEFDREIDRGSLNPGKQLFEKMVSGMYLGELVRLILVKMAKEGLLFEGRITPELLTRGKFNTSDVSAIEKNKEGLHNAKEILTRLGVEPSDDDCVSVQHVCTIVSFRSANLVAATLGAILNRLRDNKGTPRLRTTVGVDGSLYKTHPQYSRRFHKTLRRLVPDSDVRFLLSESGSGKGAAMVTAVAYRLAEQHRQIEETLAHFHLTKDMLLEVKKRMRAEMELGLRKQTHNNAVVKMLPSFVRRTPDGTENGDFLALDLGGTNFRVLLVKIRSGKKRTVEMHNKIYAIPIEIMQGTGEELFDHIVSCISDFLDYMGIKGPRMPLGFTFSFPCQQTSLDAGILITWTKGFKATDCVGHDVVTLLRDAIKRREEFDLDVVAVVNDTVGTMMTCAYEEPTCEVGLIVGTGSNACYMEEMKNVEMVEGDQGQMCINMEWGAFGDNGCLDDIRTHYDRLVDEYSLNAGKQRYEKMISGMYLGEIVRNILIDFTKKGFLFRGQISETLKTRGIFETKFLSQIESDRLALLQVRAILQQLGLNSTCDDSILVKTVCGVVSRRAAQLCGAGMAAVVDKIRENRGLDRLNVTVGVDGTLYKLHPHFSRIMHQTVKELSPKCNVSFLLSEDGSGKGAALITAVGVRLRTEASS

[6] = target: T2, Hexokinase HKDC1 (Homo sapiens, UniProt Q2TB90); assay: SAR analysis of small molecule inhibitors of hexokinase domain containing I (HKDC1). [Related pubchem assays (depositor defined):AID493160, AID493190]; type: functional
T2 sequence (Q2TB90 whole entry): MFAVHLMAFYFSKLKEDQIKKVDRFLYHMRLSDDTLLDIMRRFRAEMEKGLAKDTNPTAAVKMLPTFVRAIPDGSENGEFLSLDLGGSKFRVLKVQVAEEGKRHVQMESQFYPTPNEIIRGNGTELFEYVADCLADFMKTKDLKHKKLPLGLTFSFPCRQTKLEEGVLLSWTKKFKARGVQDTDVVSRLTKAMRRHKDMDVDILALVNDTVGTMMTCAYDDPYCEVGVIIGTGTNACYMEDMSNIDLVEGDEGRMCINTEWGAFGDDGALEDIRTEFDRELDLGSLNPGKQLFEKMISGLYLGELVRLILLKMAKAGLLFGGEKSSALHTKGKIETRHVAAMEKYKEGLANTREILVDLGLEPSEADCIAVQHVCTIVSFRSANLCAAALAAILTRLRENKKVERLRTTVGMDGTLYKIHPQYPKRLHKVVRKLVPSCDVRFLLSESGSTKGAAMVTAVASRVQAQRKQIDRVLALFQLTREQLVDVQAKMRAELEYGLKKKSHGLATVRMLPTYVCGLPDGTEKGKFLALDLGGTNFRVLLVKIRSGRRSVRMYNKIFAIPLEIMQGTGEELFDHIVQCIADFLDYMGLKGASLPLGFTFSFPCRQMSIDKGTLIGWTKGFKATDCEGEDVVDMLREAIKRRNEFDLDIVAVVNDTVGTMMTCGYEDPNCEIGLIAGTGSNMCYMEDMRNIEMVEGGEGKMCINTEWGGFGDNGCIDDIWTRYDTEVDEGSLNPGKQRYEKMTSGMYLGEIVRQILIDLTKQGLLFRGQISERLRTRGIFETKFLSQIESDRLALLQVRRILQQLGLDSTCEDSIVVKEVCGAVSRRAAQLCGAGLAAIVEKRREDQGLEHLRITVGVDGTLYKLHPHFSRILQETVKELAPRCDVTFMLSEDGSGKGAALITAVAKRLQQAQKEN

[7] = Luminescence-based dose response cell-based high throughput screening assay for cytotoxic compounds using the IEC-6 intestinal epithelial cell line. [Related pubchem assays: 1858 (Summary AID.), 1825 (Counterscreen.), 1907 (Confirmation screen.)]; type: functional
[8] = mitochondrial function rescue without frataxin homolog – Friedreich's ataxia, plus single-dose screen, dose response (AID 1465); type: functional;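 note: yeast depleted of Yfh1p frataxin homolog grown on glycerol needing respiration; WST-1 tetrazolium dye reduction as measure of cellular dehydrogenase metabolic activity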
[9] = viability loss in HeLa cells – cytotoxicity control for MgcRacGAP inhibitor project, dose response (AID 624300); type: functional

Chain of DNA (cytosine-5)-methyltransferase 1 (P26358 whole entry): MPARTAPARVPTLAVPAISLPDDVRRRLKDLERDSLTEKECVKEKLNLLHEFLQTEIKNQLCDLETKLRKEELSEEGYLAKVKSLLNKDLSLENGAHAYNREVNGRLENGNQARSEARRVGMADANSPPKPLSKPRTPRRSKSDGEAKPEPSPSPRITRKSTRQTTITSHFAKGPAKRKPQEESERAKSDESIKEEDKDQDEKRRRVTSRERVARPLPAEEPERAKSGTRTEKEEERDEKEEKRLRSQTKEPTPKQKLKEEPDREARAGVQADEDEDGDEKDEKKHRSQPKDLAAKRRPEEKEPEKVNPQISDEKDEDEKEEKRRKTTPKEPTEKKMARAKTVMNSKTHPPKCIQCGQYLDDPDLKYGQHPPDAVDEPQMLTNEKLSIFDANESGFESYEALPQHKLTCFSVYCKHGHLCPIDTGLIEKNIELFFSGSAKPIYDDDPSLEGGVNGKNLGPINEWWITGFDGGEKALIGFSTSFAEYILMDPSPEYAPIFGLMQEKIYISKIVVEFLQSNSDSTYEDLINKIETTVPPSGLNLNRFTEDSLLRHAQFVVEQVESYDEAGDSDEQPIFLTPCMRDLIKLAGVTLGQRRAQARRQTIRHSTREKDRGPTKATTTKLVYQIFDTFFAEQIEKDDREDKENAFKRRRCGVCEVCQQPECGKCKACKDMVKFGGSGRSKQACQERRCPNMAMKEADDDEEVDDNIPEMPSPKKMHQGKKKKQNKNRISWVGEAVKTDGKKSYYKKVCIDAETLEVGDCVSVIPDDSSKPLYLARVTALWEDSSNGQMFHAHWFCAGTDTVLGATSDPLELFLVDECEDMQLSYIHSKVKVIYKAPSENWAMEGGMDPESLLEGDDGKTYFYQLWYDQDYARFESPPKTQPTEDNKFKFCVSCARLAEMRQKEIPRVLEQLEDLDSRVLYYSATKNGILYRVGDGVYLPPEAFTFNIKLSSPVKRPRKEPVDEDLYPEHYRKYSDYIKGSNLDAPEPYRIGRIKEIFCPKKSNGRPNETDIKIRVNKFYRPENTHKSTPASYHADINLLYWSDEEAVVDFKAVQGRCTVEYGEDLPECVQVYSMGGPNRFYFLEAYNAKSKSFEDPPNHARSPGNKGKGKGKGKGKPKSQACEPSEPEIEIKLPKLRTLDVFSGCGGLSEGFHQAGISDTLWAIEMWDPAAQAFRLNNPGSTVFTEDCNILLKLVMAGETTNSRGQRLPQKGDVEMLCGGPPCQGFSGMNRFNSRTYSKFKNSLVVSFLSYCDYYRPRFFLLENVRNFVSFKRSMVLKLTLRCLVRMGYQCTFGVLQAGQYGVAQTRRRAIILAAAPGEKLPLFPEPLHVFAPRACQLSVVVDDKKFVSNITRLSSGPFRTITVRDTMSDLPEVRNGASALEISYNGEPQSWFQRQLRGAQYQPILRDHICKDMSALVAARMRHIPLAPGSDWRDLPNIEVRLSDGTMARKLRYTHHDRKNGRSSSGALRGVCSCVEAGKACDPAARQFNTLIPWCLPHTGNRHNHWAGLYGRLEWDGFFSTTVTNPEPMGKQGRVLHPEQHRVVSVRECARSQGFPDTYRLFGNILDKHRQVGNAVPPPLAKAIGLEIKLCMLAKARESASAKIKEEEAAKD
Chain of DNA damage-inducible transcript 3 protein (P35639 whole entry): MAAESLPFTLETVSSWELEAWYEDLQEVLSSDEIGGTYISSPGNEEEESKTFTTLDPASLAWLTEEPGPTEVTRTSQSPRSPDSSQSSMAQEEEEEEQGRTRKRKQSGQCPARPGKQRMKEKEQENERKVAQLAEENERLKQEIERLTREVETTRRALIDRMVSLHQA

**Q.** What does the source list for `CCc1nnc(NS(=O)(=O)c2ccc(NC(=S)NC(=O)/C=C/c3ccc(C(C)C)cc3)cc2)s1`?
**A.** Absolute IC50 (CHOP) [1]: 10 µM; IC50 [2]: 6.16 µM (active)

**Q.** With `O=C(/C=C/c1ccco1)Nc1ccc(Oc2ccccc2)cc1` as the compound, how does the EC50 [3] read?
**A.** 21.2 µM (active)

**Q.** What about the EC50 [4] of the same compound?
**A.** 18.1 µM (active)

**Q.** For `COc1ccc(S(=O)(=O)Nc2cc(SCC(=O)O)c(O)c3ccccc23)cc1`, which IC50 [5] is on record?
**A.** > 80 µM (inactive)

**Q.** And the IC50 [6]?
**A.** 10.5 µM (active)

**Q.** For `O=C1C(Nc2ccc(O)cc2)=C/C(=N/S(=O)(=O)c2cccs2)c2ccccc21`, which IC50 [7] is on record?
**A.** 0.428 µM (active)

**Q.** And the EC50 [8]?
**A.** > 100 µM (active)

**Q.** What about the CC50 [9] of the same compound?
**A.** 2.59 µM (active)
